The species entered for one assay is Rattus norvegicus. As to the kind of experiment: Effective dose was determined for the behavioral (interoceptive cues) activity of rats. It counts as functional.
Assay [1] concerns the target Serotonin (5-HT) receptor. As to the kind of experiment: Compound was evaluated for binding affinity towards 5-hydroxytryptamine receptor in isolated rat fundus preparation measured as pA2.

The record followed here is ChEMBL document CHEMBL1121558, “Studies on several 7-substituted N,N-dimethyltryptamines” (J Med Chem, 1980).

One may read the ED50 as the dose that gives a 50% effect, or the effect in half of the subjects. High values mean a need for a large dose, low ones an effect at a small dose. For orientation: pA2 means a measure of antagonist potency on a negative log scale. Lower therefore signals a weaker antagonist.

With `COc1ccc(OC)c(CC(C)N)c1` (stereo not given), in the assay listed under Rattus norvegicus, the ED50 stood at 0.59 mg/kg.
On to `COc1cc(C)c2[nH]cc(CCN(C)C)c2c1`, for which the pA2 in assay [1] turned out to be 6.61. Besides, the 50% effect level in the assay filed under Rattus norvegicus (ED50) was put at a dose of 1.54 mg/kg.
For `CN(C)CCc1c[nH]c2c(Br)cccc12`, the pA2 in assay [1] was found to be 6.51.
In turn, `COc1ccc2c(CCN(C)C)c[nH]c2c1` displayed an ED50 in the assay listed under Rattus norvegicus of 0.4 mg/kg.
The molecule `CCc1cccc2c(CCN(C)C)c[nH]c12` yielded a pA2 in assay [1] of 6.31.
In the case of `COc1cc2c(CCN(C)C)c[nH]c2c(OC)c1OC`, in assay [1], the pA2 is recorded as 5.98.
As to `COc1cc(OC)c2[nH]cc(CCN(C)C)c2c1`, the pA2 in assay [1] came to 5.5. In addition, in the assay listed under Rattus norvegicus, it took a dose of 3.38 mg/kg to reach the 50% effect level (ED50).
In the case of `Cc1cccc2c(CCN(C)C)c[nH]c12`, the pA2 in assay [1] is given as 6.29.
